Experimental data from patent publication US12297218B2, “Complex comprising a PSMA-targeting compound linked to a lead or thorium radionuclide” (Sciencons AS, priority 2017, dated 2025).

How the values were obtained:
C4-2 cells = assay: Prostate cancer cell binding of ligands labeled with ^212Pb; design: species or system human
Experimental: the cell binding fractions measured by adding about 1 ng of radioligand to 0.2 ml of C4-2 cells (5×10^7 cells per ml) in a 5 ml test tube and incubate for 1 h before measuring applied activity, wash cells 3 times with 0.5 ml 0.5% bovine serum albumin in DPBS and thereafter recount the washed cell pellet. […] Nonspecific binding was measured by blocking the cells with excess 10 μg/ml of unlabelled ligand before adding radioligand.

PC3 PIP model = conditions: typical, mouse xenografts, other researchers; cited from earlier work
[1] = test system: C4-2 PSMA positive human prostate cells; assay: Comparative therapy experiment in nude mice with C4-2 xenografts; type: in vivo; conditions: for Median survival: 52 MBq ^177Lu-PSMA-617 or 320 kBq ^212Pb-p-SCN-Bn-TCMC-PSMA ligand 1
Experimental: Male nude mice were inoculated in the flanks with C4-2 PSMA positive human prostate cells and 2 weeks later when tumors were 5-7 mm in diameters. Groups of 8 animals each received saline, 52 MBq of ^177Lu-PSMA-617 or 320 kBq of ^212Pb-p-SCN-Bn-TCMC-PSMA ligand 1. Animals were sacrificed when tumor size reached 20 mm due to animal welfare requirements. […] For ^212Pb the effective half-life was assumed to be 10.6 h, 10% of injected dose per gram decays in tumor and 100% of radiation in a tumor is absorbed in the tumor, 100% retention of ^212Pb and daughters in the tumors and 8 MeV radiation energy per decay. The tumor dosimetry for the injected activities gave on average 35.9 Gy to tumors for ^177Lu-PSMA-617 and 2.06 Gy to tumors for ^212Pb-p-SCN-Bn-TCMC-PSMA ligand 1 groups respectively.

[2] = test system: C4-2 PSMA-positive xenografts; assay: Biodistribution of radiolabelled ligands after intravenous injection in nude mice with C4-2 xenografts; conditions: for Tumor-to-kidney ratio / Kidney uptake / Tumor uptake: average; for Tumor-to-kidney ratio: 1-hour point after administration; for Kidney uptake / Tumor uptake: 4 hours after injection
Experimental: Each group usually consisted of three mice. […] Approximately 16 kBq of ^224Ra/^212Pb was injected in each animal, i.e., approximately 0.2 nmol of ligand per mouse. Animals were given anaesthesia and sacrificed by cervical dislocation followed by dissection and harvesting of tissue-, blood- and urine samples. The samples were weighed and counted on a gamma counter.
Three mice in each group. […] The molar concentration was the same for both products, i.e., 12.5 nmol per MBq. Approximately 16 kBq of ^224Ra/^212Pb was injected in each animal, i.e., approximately 0.2 nmol of ligand per mouse. Animals were given anaesthesia and sacrificed by cervical dislocation followed by dissection and harvesting of tissue-, blood- and urine samples. The samples were weighed and counted on a gamma counter.
Methods: Tumor and kidney uptake of ^212Pb-labeled p-SCN-Bn-TCMC-PSMA ligand 1 and ^177Lu-labeled PSMA-617 was compared at 1 hours and 4 hours after administration of the products by intravenous injection into nude mice with C4-2 xenografts as described in Example 9.

PSMA-positive xenografts = assay: Biodistribution of single targeting solution (purified ^212Pb-p-SCN-Bn-TCMC-PSMA ligand 1) in mice with PSMA-positive xenografts; type: in vivo
Experimental: Each group usually consisted of three mice. The ^212Pb labelling was above 92% for the products.
Using a ^212Pb/^224Ra solution for reaction with p-SCN-Bn-TCMC-PSMA ligand 1 as described, purified ^212Pb-p-SCN-Bn-TCMC-PSMA ligand 1 was purified using a Sephadex G-10 gel filtration column and about 30 kBq and 300 ng of the purified radioligand product was injected per animal. […] The tumor-to-tissue ratios (Table 4) indicates suitability for radioligand targeting with ^212Pb.

With `NC(=O)CN1CCN(CC(N)=O)CCN(CC(N)=O)C(Cc2ccc(NC(=S)NC[C@H]3CC[C@H](C(=O)N[C@@H](Cc4ccc5ccccc5c4)C(=O)NCCCC[C@H](NC(=O)N[C@@H](CCC(=O)O)C(=O)O)C(=O)O)CC3)cc2)CN(CC(N)=O)CC1` (stereo partly drawn) [p-SCN-Bn-TCMC-PSMA ligand 1, (((1S)-1-carboxy-5-((2S)-3-(naphthalen-2-yl)-2-((1r,4S)-4-((3-(4-((1,4,7,10-tetrakis(2-amino-2-oxoethyl)-1,4,7,10-tetraazacyclododecan-2-yl)methyl)phenyl)thioureido)methyl)cyclohexane-1-carboxamido)propanamido)pentyl)carbamoyl)-L-glutamic acid; trifloroacetic acid (1:4)] the “Difference in cell-binding between radiolabelled p-SCN-Bn-TCMC-PSMA ligand 1 and PSMA-617” value (C4-2 cells) was “No significant difference”.
For `O=C([O-])CN1CCN(CC(=O)[O-])CCN(CC(=O)NCC2CCC(C(=O)N[C@@H](Cc3ccc4ccccc4c3)C(=O)NCCCC[C@H](NC(=O)N[C@@H](CCC(=O)O)C(=O)O)C(=O)O)CC2)CCN(CC(=O)[O-])CC1.[177Lu+3]` (stereo partly shown) [^177Lu-PSMA-617, reference compound], the “PSMA-ligand uptake in PC3 PIP model” value (PC3 PIP model) is given as 30-40 % ID/g, the Median survival [1] is given as 20 days and the Tumor-to-kidney ratio [2] is given as 0.17. The Kidney uptake [2] was 17.4 % ID/g, the Tumor uptake [2] was 13.6 % ID/g and the “PSMA-ligand uptake in the xenograft model used” value ([2]; typical, mouse xenografts) was 10-15 % ID/g.
With `NC(=O)CN1CCN(CC(N)=O)CCN(CC(N)=O)C(Cc2ccc(NC(=S)NCC3CCC(C(=O)NC(Cc4ccc5ccccc5c4)C(=O)NCCCCC(NC(=O)NC(CCC(=O)O)C(=O)O)C(=O)O)CC3)cc2)CN(CC(N)=O)CC1.[212Pb+2]` (stereo not shown) [^212Pb-p-SCN-Bn-TCMC-PSMA ligand 1] the Median survival [1] was over 30 days, the “Radiobiological effectiveness (RBE) vs ^177Lu-PSMA-617” value ([1]; C4-2 xenografts) was “at least 17” and the “Survival at day 30 after treatment” value ([1]; groups of 8) was 75%. The “Tumor to tissue ratio, Tumor/Femur” value (PSMA-positive xenografts; 1 h) was 30.4, the “Tumor to tissue ratio, Tumor/blood” value (PSMA-positive xenografts; 1 h) was 14.9 and the “Tumor to tissue ratio, Tumor/kidneys” value (PSMA-positive xenografts; 1 h) was 0.41. For the same compound, the “Tumor to tissue ratio, Tumor/muscle” value (PSMA-positive xenografts; 1 h) was 42.6, the “Tumor to tissue ratio, Tumor/Femur” value (PSMA-positive xenografts; 2 h) was 39.7 and the “Tumor to tissue ratio, Tumor/blood” value (PSMA-positive xenografts; 2 h) was 29.4. For the same compound, the “Tumor to tissue ratio, Tumor/kidneys” value (PSMA-positive xenografts; 2 h) was 0.62, the “Tumor to tissue ratio, Tumor/muscle” value (PSMA-positive xenografts; 2 h) was 72.1 and the “Tumor to tissue ratio, Tumor/Femur” value (PSMA-positive xenografts; 4 h) was 24.8. The “Tumor to tissue ratio, Tumor/blood” value (PSMA-positive xenografts; 4 h) was 30.7, the “Tumor to tissue ratio, Tumor/kidneys” value (PSMA-positive xenografts; 4 h) was 1.54 and the “Tumor to tissue ratio, Tumor/muscle” value (PSMA-positive xenografts; 4 h) was 61.5. For the same compound, the “Tumor to tissue ratio, Tumor/Femur” value (PSMA-positive xenografts; 8 h) was 19.8, the “Tumor to tissue ratio, Tumor/blood” value (PSMA-positive xenografts; 8 h) was 112.7 and the “Tumor to tissue ratio, Tumor/kidneys” value (PSMA-positive xenografts; 8 h) was 3.60. For the same compound, the “Tumor to tissue ratio, Tumor/muscle” value (PSMA-positive xenografts; 8 h) was 366.2, the “Biodistribution, Bladder” value (PSMA-positive xenografts; Bladder, 8 h) was 0.26 % ID/g and the “Biodistribution, Blood” value (PSMA-positive xenografts; 2 h) was 0.54 % ID/g. For the same compound, the “Biodistribution, Blood” value (PSMA-positive xenografts; 4 h) was 0.46 % ID/g, the “Biodistribution, Blood” value (PSMA-positive xenografts; 8 h) was 0.13 % ID/g and the “Biodistribution, Brain” value (PSMA-positive xenografts; 1 h) was 0.61 % ID/g. For the same compound, the “Biodistribution, Brain” value (PSMA-positive xenografts; 2 h) was 0.04 % ID/g, the “Biodistribution, Brain” value (PSMA-positive xenografts; 4 h) was 0.07 % ID/g and the “Biodistribution, Brain” value (PSMA-positive xenografts; 8 h) was 0.02 % ID/g. The “Biodistribution, Femur” value (PSMA-positive xenografts; 1 h) was 0.87 % ID/g, the “Biodistribution, Femur” value (PSMA-positive xenografts; 2 h) was 0.40 % ID/g and the “Biodistribution, Femur” value (PSMA-positive xenografts; 4 h) was 0.57 % ID/g. For the same compound, the “Biodistribution, Femur” value (PSMA-positive xenografts; 8 h) was 0.74 % ID/g, the “Biodistribution, Heart” value (PSMA-positive xenografts; 1 h) was 0.78 % ID/g and the “Biodistribution, Heart” value (PSMA-positive xenografts; 2 h) was 0.20 % ID/g. For the same compound, the “Biodistribution, Heart” value (PSMA-positive xenografts; 4 h) was 0.52 % ID/g, the “Biodistribution, Heart” value (PSMA-positive xenografts; 8 h) was 0.09 % ID/g and the “Biodistribution, Large intestine” value (PSMA-positive xenografts; 1 h) was 0.25 % ID/g. For the same compound, the “Biodistribution, Large intestine” value (PSMA-positive xenografts; 2 h) was 0.39 % ID/g, the “Biodistribution, Large intestine” value (PSMA-positive xenografts; 4 h) was 0.18 % ID/g and the “Biodistribution, Large intestine” value (PSMA-positive xenografts; 8 h) was 0.17 % ID/g. The “Biodistribution, Lungs” value (PSMA-positive xenografts; 2 h) was 0.40 % ID/g, the “Biodistribution, Lungs” value (PSMA-positive xenografts; 4 h) was 0.75 % ID/g and the “Biodistribution, Lungs” value (PSMA-positive xenografts; 8 h) was 0.17 % ID/g. For the same compound, the “Biodistribution, Muscle” value (PSMA-positive xenografts; 1 h) was 0.62 % ID/g, the “Biodistribution, Muscle” value (PSMA-positive xenografts; 2 h) was 0.22 % ID/g and the “Biodistribution, Muscle” value (PSMA-positive xenografts; 4 h) was 0.23 % ID/g. For the same compound, the “Biodistribution, Muscle” value (PSMA-positive xenografts; 8 h) was 0.04 % ID/g, the “Biodistribution, Prostate” value (PSMA-positive xenografts; Prostate, 2 h) was 3.80 % ID/g and the “Biodistribution, Salivary gland” value (PSMA-positive xenografts; 1 h) was 0.72 % ID/g. The “Biodistribution, Salivary gland” value (PSMA-positive xenografts; 2 h) was 0.32 % ID/g, the “Biodistribution, Salivary gland” value (PSMA-positive xenografts; 4 h) was 0.34 % ID/g and the “Biodistribution, Salivary gland” value (PSMA-positive xenografts; 8 h) was 0.15 % ID/g. For the same compound, the “Biodistribution, Skin” value (PSMA-positive xenografts; 1 h) was 1.70 % ID/g, the “Biodistribution, Skin” value (PSMA-positive xenografts; 2 h) was 0.47 % ID/g and the “Biodistribution, Skin” value (PSMA-positive xenografts; 4 h) was 0.42 % ID/g. The “Biodistribution, Skin” value (PSMA-positive xenografts; 8 h) was 0.23 % ID/g, the “Biodistribution, Skull” value (PSMA-positive xenografts; 1 h) was 0.77 % ID/g and the “Biodistribution, Skull” value (PSMA-positive xenografts; 2 h) was 0.38 % ID/g. For the same compound, the “Biodistribution, Skull” value (PSMA-positive xenografts; 4 h) was 0.37 % ID/g, the “Biodistribution, Skull” value (PSMA-positive xenografts; 8 h) was 0.63 % ID/g and the “Biodistribution, Small intestine” value (PSMA-positive xenografts; 1 h) was 0.34 % ID/g. The “Biodistribution, Small intestine” value (PSMA-positive xenografts; 2 h) was 0.23 % ID/g, the “Biodistribution, Small intestine” value (PSMA-positive xenografts; 4 h) was 0.30 % ID/g and the “Biodistribution, Small intestine” value (PSMA-positive xenografts; 8 h) was 0.08 % ID/g. For the same compound, the “Biodistribution, Spleen” value (PSMA-positive xenografts; 2 h) was 0.44 % ID/g, the “Biodistribution, Spleen” value (PSMA-positive xenografts; 4 h) was 0.54 % ID/g and the “Biodistribution, Spleen” value (PSMA-positive xenografts; 8 h) was 0.36 % ID/g. The “Biodistribution, Stomach” value (PSMA-positive xenografts; 1 h) was 0.16 % ID/g, the “Biodistribution, Stomach” value (PSMA-positive xenografts; 2 h) was 0.22 % ID/g and the “Biodistribution, Stomach” value (PSMA-positive xenografts; 4 h) was 0.10 % ID/g. For the same compound, the “Biodistribution, Stomach” value (PSMA-positive xenografts; 8 h) was 0.09 % ID/g, the “Biodistribution, Testes” value (PSMA-positive xenografts; 2 h) was 0.56 % ID/g and the “Biodistribution, Testes” value (PSMA-positive xenografts; 4 h) was 0.38 % ID/g. The “Biodistribution, Testes” value (PSMA-positive xenografts; 8 h) was 0.12 % ID/g, the “^212Pb-p-SCN-Bn-TCMC-PSMA ligand 1 to PSMA-617 ratio, blood” value ([2]; 4 h after injection) was 1.21 and the “^212Pb-p-SCN-Bn-TCMC-PSMA ligand 1 to PSMA-617 ratio, kidneys” value ([2]; 4 h after injection) was 0.20. The “^212Pb-p-SCN-Bn-TCMC-PSMA ligand 1 to PSMA-617 ratio, liver” value ([2]; 4 h after injection) was 2.67, the “^212Pb-p-SCN-Bn-TCMC-PSMA ligand 1 to PSMA-617 ratio, spleen” value ([2]; 4 h after injection) was 0.71 and the “^212Pb-p-SCN-Bn-TCMC-PSMA ligand 1 to PSMA-617 ratio, tumor” value ([2]; 4 h after injection, ^224Ra/^212Pb solution) was 1.35. The Tumor-to-kidney ratio [2] was 0.40, the Kidney uptake [2] was 8.1 % ID/g and the Tumor uptake [2] was 13.9 % ID/g.
